Results as given in patent publication US12545637B2, “Extrahepatic targeted cationic lipid compound with high efficiency and low toxicity and its composition” (BEIJING YOUCARE KECHUANG PHARMACEUTICAL TECHNOLOGY CO., LTD., priority 2023, dated 2026).
Several values for one entry are separate records, joined by “and”; a condition that tells them apart may be missing. Identical values can stand only once.

How the values were obtained:
[1] = tested on: 293T cells; assay: Fluorescent detection of Fluc-mRNA (cell transfection efficiency of LNP formulations); type: cell-based
Method: (§1) Seeding plate: The cells in the culture dish were digested and counted. Cells were spread in a 96-well plate at 10,000 cells per well and in a 12-well plate at 150,000 cells per well. Cells were cultured overnight until the cells adhered to the wall.
The corresponding reagents were added according to the instructions of the Gaussia Luciferase Assay Kit, and the fluorescence expression intensity of each well was detected by an IVIS fluorescence detection system.

[2] = tested on: 293T cells; assay: as above; type: cell-based; remark: listed apart in the source
[3] = tested on: 293T cells; assay: Cell survival rate assay (CCK-8); type: cell-based
Method: Cell recovery and passage: 293T cells were recovered, cultured in a culture dish, and passaged to the required number of cells.
as §1
An LNP formulation containing 1.5 μg of Fluc-mRNA (prepared according to example 4, the carrier components of the LNP formulation were cationic lipid, neutral lipid, structured lipid and polymer-conjugated lipid at a molar ratio of 49:10:39.5:1.5, wherein the cationic lipid was listed in Table 1) and the formulation of Lipofectamine 3000 were added to the cell culture medium of a 96-well plate, and further cultivated for 24 hours. 10 μL of CCK-8 solution was then added to each well, and the culture plate was incubated in an incubator for 1 hour. The absorbance at 450 nm was measured by a microplate reader.

[4] = tested on: female BALB/C mice; assay: In vivo imaging in mice of Fluc-mRNA LNP formulations (mRNA expression and duration)
Method: The LNP formulation (prepared according to Example 4) containing […] Fluc-mRNA was injected intramuscularly into female BALB/C mice aged 4-6 weeks and weighed 17-19 g, and the mice were intraperitoneally injected with fluorescent imaging substrate at specific time points after administration (6h, 24 h, 48h and 7d), where the mice were allowed to free move for 5 minutes, and then the average radiation intensity (corresponding to fluorescence expression intensity) of the protein expression of the mRNA carried by the LNP in the mice was detected by the IVIS Spectrum small animal in vivo imaging system.

## CCCCCCCCC(CCCCCCCC)OC(=O)CCCCCN(CCO)CCN(CCO)CCCCCC(=O)OC(CCCCCCCC)CCCCCCCC [YK-401, di(heptadecan-9-yl) 6,6′-(ethane-1,2-diyl-bis((2-hydroxyethyl)azanediyl))dihexanoate]
[1]; LNP with 0.3 μg Fluc-mRNA, 96-well plate, 24 hours
  Relative light unit (RLU): 5609550 RLU
[1]; ratio vs YK-415
  cell transfection efficiency, times that of YK-415: 18.82
[1]; ratio vs YK-417
  cell transfection efficiency, times that of YK-417: 47.83
[1]; ratio vs YK-418
  cell transfection efficiency, times that of YK-418: 50.42
[1]; ratio vs YK-424
  cell transfection efficiency, times that of YK-424: 1.95
[1]; ratio vs compound 21
  RLU value, times that of compound 21: 3.71
[1]; ratio vs compound 23
  RLU value, times that of compound 23: 4.00
[2]; ratio vs ALC-0315
  RLU value, times that of ALC-0315: 2.56
[2]; ratio vs HHMA
  RLU value, times that of HHMA: 2.70
[2]; ratio vs Lipofectamine 3000
  RLU value, times that of Lipofectamine 3000: 4.67
[2]; ratio vs YK-009
  RLU value, times that of YK-009: 1.09
[2]; ratio vs YK-405
  RLU value, times that of YK-405: 1.75
[2]; ratio vs YK-406
  RLU value, times that of YK-406: 71.69
[2]; ratio vs YK-408
  RLU value, times that of YK-408: 3.81
[2]; ratio vs YK-409
  RLU value, times that of YK-409: 8.37
[2]; ratio vs YK-410
  RLU value, times that of YK-410: 13.75
[2]; ratio vs YK-412
  cell transfection efficiency, times that of YK-412: 1.66
[2]; ratio vs YK-413
  cell transfection efficiency, times that of YK-413: 4.07
[2]; ratio vs YK-414
  cell transfection efficiency, times that of YK-414: 12.63
[2]; ratio vs YK-416
  cell transfection efficiency, times that of YK-416: 1.41
[2]; ratio vs YK-419
  cell transfection efficiency, times that of YK-419: 1.77
[2]; ratio vs YK-420
  cell transfection efficiency, times that of YK-420: 1.40
[2]; ratio vs YK-421
  cell transfection efficiency, times that of YK-421: 12.02
[3]; LNP with 1.5 μg Fluc-mRNA, 24 hours, CCK-8
  Cell survival rate: 75.21%
[3]; difference vs ALC-0315
  cell survival rate higher than ALC-0315: 28.00%
[3]; difference vs HIMA (HHMA)
  cell survival rate higher than HIMA: 10.94%
[3]; difference vs Lipofectamine 3000
  cell survival rate higher than Lipofectamine 3000: 53.55%
[3]; difference vs SM-102
  cell survival rate higher than SM-102: 4.31% and 7.31%
[3]; difference vs YK-404
  cell survival rate higher than YK-404: 33.09%
[3]; difference vs YK-405
  cell survival rate higher than YK-405: 33.35%
[3]; difference vs YK-406
  cell survival rate higher than YK-406: 50.25%
[3]; difference vs YK-408
  cell survival rate higher than YK-408: 32.90%
[3]; difference vs YK-409
  cell survival rate higher than YK-409: 29.10%
[3]; difference vs YK-410
  cell survival rate higher than YK-410: 30.29%
[3]; difference vs YK-411
  cell survival rate higher than YK-411: 58.88%
[3]; difference vs YK-412
  cell survival rate higher than YK-412: 21.07%
[3]; difference vs YK-413
  cell survival rate higher than YK-413: 28.01%
[3]; difference vs YK-414
  cell survival rate higher than YK-414: 46.46%
[3]; difference vs YK-415
  cell survival rate higher than YK-415: 14.05%
[3]; difference vs YK-416
  cell survival rate higher than YK-416: 34.24%
[3]; difference vs YK-417
  cell survival rate higher than YK-417: 53.87%
[3]; difference vs YK-418
  cell survival rate higher than YK-418: 54.16%
[3]; difference vs YK-419
  cell survival rate higher than YK-419: 36.29%
[3]; difference vs YK-420
  cell survival rate higher than YK-420: 39.62%
[3]; difference vs YK-421
  cell survival rate higher than YK-421: 39.50%
[3]; difference vs YK-424
  cell survival rate higher than YK-424: 47.28%
[3]; difference vs compound 21
  cell survival rate higher than compound 21: 7.37%
[3]; difference vs compound 23
  cell survival rate higher than compound 23: 6.10%
[3]; rounded summary statement vs YK-411
  cytotoxicity reduced compared with YK-411: 50%
[4]; 6 h
  average radiation intensity, times that of ALC-0315: 1.85
  average radiation intensity, times that of HHMA: 2.36
  average radiation intensity, times that of SM-102: 2.25
  average radiation intensity, times that of compound 21: 2.59
  average radiation intensity, times that of compound 23: 2.68
  expression amount in mice, times that of YK-415: 13.22
  expression amount in mice, times that of YK-417: 25.75
  mRNA expression in mice, times that of YK-411: 266.26
[4]; 24 h
  average radiation intensity, times that of ALC-0315: 4.25
  average radiation intensity, times that of HHMA: 6.72
  average radiation intensity, times that of SM-102: 6.53
  average radiation intensity, times that of compound 21: 7.26
  average radiation intensity, times that of compound 23: 7.98
  expression amount in mice, times that of YK-415: 12.50
  expression amount in mice, times that of YK-417: 40.34
  mRNA expression in mice, times that of YK-411: 398.73
[4]; 48 h
  average radiation intensity, times that of ALC-0315: 9.79
  average radiation intensity, times that of HHMA: 11.79
  average radiation intensity, times that of SM-102: 11.96
  average radiation intensity, times that of compound 21: 12.46
  average radiation intensity, times that of compound 23: 11.94
  expression amount in mice, times that of YK-415: 24.89
  expression amount in mice, times that of YK-417: 55.79
  mRNA expression in mice, times that of YK-411: 403.10
[4]; 7 d
  average radiation intensity, times that of ALC-0315: 1.50
  average radiation intensity, times that of HHMA: 1.76
  average radiation intensity, times that of SM-102: 1.56
  average radiation intensity, times that of compound 21: 1.65
  average radiation intensity, times that of compound 23: 1.72
  expression amount in mice, times that of YK-415: 2.60
  expression amount in mice, times that of YK-417: 4.60
  mRNA expression in mice, times that of YK-411: 21.90
[4]; Fluc-mRNA LNP intramuscular, 6 h after administration
  average radiation intensity, 6 h: 1557640
[4]; Fluc-mRNA LNP intramuscular, 24 h after administration
  average radiation intensity, 24 h: 806240
[4]; Fluc-mRNA LNP intramuscular, 48 h after administration
  average radiation intensity, 48 h: 393020
[4]; Fluc-mRNA LNP intramuscular, 7 d after administration
  average radiation intensity, 7 d: 10512
